Results as given in ChEMBL document CHEMBL3576836, “Bioactive Metabolites from the Fruits of Psoralea corylifolia” (J Nat Prod, 2015).
Calls of active or inactive are those of the source. The calls are words filed in the database; no cut-off is given here.

Columns and labels:
[1] = biological target: T1, NAD-dependent protein deacetylase sirtuin-1 (Homo sapiens) (UniProt Q96EB6); experiment: Increase in SIRT1 (unknown origin) deacetylation activity at 10 uM
T1 sequence (whole entry): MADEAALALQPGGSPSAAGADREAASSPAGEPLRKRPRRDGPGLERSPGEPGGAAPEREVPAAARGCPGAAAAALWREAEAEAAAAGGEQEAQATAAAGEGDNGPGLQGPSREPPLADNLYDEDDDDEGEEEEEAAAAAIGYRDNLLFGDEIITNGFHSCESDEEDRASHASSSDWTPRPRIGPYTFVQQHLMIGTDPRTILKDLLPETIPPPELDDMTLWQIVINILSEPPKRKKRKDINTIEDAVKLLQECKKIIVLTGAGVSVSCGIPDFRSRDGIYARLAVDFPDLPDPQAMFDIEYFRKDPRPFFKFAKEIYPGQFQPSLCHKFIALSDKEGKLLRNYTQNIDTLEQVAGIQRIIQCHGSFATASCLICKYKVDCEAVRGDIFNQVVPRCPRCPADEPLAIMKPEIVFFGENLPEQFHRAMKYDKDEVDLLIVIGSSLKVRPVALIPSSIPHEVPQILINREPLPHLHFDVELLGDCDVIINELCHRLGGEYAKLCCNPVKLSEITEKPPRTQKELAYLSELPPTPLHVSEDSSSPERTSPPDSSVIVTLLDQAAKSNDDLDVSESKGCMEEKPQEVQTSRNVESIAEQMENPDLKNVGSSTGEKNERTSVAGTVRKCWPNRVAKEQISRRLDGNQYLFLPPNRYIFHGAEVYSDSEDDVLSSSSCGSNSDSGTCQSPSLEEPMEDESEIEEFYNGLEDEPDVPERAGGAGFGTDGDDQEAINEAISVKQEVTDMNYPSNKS

K562 = experiment: Cytotoxicity against human K562 cells after 48 hrs by MTT assay; type: functional, cell-based; conditions: K562, 48 h
A549 = experiment: Cytotoxicity against human A549 cells after 48 hrs by MTT assay; type: functional, cell-based; conditions: A549, 48 h
[2] = Inhibition of Streptococcus mutans OMZ65 recombinant sortase A delta-40 mutant using Dabcyl-QALPETGEE-Edans as substrate after 1 hr by fluorescence spectrophotometry
[3] = biological target: T1, NAD-dependent protein deacetylase sirtuin-1 (Homo sapiens); experiment: Increase in SIRT1 (unknown origin) deacetylation activity
[4] = biological target: T1, NAD-dependent protein deacetylase sirtuin-1 (Homo sapiens); experiment: Stimulation of SIRT1 (unknown origin) expressed in HEK293 cells assessed as increase in intracellular NAD+/NADH ratio; type: cell-based
[5] = biological target: T1, NAD-dependent protein deacetylase sirtuin-1 (Homo sapiens); experiment: Stimulation of SIRT1 (unknown origin) expressed in HEK293 cells coexpressing p53-Luc assessed as decrease in p53 transcriptional activity; type: cell-based

Compound	Activity [1]	IC50 (K562) [µM]	IC50 (A549) [µM]	IC50 [2] [µM]	Activity [3]	Activity [4]	Activity [5]
CC(C)(O)[C@@H]1Cc2cc3c(cc2O1)O[C@H](c1ccc(O)cc1)CC3=O	inactive	> 10	> 10				
Para-Hydroxymercuribenzoic acid				118			
C=C(C)[C@@H]1Cc2cc3c(cc2O1)oc1c2ccc(O)cc2oc(=O)c31	inactive	> 10	> 10				
O=Cc1ccc(O)c(O)c1 [PROTOCATECHUALDEHYDE]	inactive	> 10	> 10	514			
O=c1ccc2ccc3occc3c2o1 [ANGELICIN]	inactive	> 10	> 10				
Oc1ccc(O)cc1 [HYDROQUINONE]	inactive	> 10	> 10				
CC1(C)Oc2ccc(-c3coc4cc(O)ccc4c3=O)cc2C[C@@H]1O	inactive	> 10	> 10	236			
CC1(C)Oc2ccc(-c3coc4cc(O)ccc4c3=O)cc2[C@H](O)[C@@H]1O	inactive	> 10	> 10				
CC(C)(O)[C@H]1Oc2cc3oc4c5ccc(O)cc5oc(=O)c4c3cc2[C@@H]1O	inactive	> 10	> 10	119			
C=C[C@@](C)(/C=C/c1ccc(O)cc1)C/C=C/C(C)(C)O	inactive	> 10	> 10				
CC(C)=CCc1cc(C(=O)/C=C/c2ccc(O)cc2)c(O)cc1O [BROUSSOCHALCONE B]	inactive	> 10	> 10				
C=C[C@@](C)(/C=C/c1ccc(O)cc1)CC[C@@H](O)C(C)(C)O	inactive	> 10	> 10				
CC(C)(O)[C@@H]1Cc2cc3c(cc2O1)oc1c2ccc(O)cc2oc(=O)c31	inactive	> 10	> 10	138			
CC1(C)Oc2ccc(-c3coc4cc(O)ccc4c3=O)cc2[C@@H](O)[C@@H]1O	inactive	> 10	> 10				
C=C(C)[C@@H]1Cc2cc3c(cc2O1)O[C@H](c1ccc(O)cc1)CC3=O	inactive	> 10	> 10				
O=Cc1ccc(O)cc1 [4-HYDROXYBENZALDEHYDE]	inactive	> 10	> 10				
CC(C)=CCc1cc2c(cc1O)O[C@H](c1ccc(O)cc1)CC2=O [BAVACHIN]	inactive	> 10	> 10				
COc1cc2oc(-c3ccc(O)cc3)cc(=O)c2cc1CC=C(C)C [BAVACHININ]	inactive	> 10	> 10				
CC(C)=CCc1cc(-c2coc3cc(O)ccc3c2=O)ccc1O [NEOBAVAISOFLAVONE]	inactive	> 10	> 10	284			
C=C[C@@](C)(/C=C/c1ccc(O)cc1)CCC(=O)C(=C)C	inactive	> 10	> 10				
CC(C)(O)c1cc2c3c(ccc2o1)C(=O)C[C@@H](c1ccc(O)cc1)O3	Active	> 10	> 10	135	Dose-dependent effect	Dose-dependent effect	Dose-dependent effect
C=C[C@@](C)(/C=C/c1ccc(O)cc1)CCC1OC1(C)C (stereo not given in full)	inactive	> 10	> 10				
CC(C)=CCc1c(O)ccc(C(=O)/C=C/c2ccc(O)cc2)c1O [ISOBAVACHALCONE]	inactive	> 10	> 10				
CC(C)(O)[C@@H]1Oc2ccc(-c3coc4cc(O)ccc4c3=O)cc2[C@H]1O	Active	> 10	> 10		Dose-dependent effect	Dose-dependent effect	Dose-dependent effect
C=C(C)[C@H]1Cc2c(ccc3c2O/C(=C\c2ccc(O)c(O)c2)C3=O)O1	inactive	> 10	> 10				
O=c1ccc2cc3ccoc3cc2o1 [PSORALEN]	inactive	> 10	> 10	330			
CC(C)=CCc1cc(-c2coc3cc(O)cc(O)c3c2=O)ccc1O [CORYLIN]	inactive	> 10	> 10	272			
CC(C)(O)[C@H]1Cc2c(ccc3c2O/C(=C\c2ccc(O)c(O)c2)C3=O)O1	Active	> 10	> 10	209	Dose-dependent effect	Dose-dependent effect	Dose-dependent effect
